Results on five compounds are retold here after ChEMBL document CHEMBL3784926, “Concise total synthesis of water soluble metatacarboline A, C, D, E and F and its anticancer activity” (Eur J Med Chem, 2016).

Series [1] concerns C6. Kind of series: Antiproliferative activity against rat C6 cells assessed as cell viability after 24 hrs by MTT assay. Conditions: for pIC50: C6, 24 h. Type of series: functional, cell-based. (In general: Tetrazolium assays rely on reduction of a dye to a coloured formazan, in cell work by metabolically active cells.)
Series [2] in a line: Solubility of the compound in water at 0.01 g after 5 mins. It is filed as physicochemical.
In series [3] the test system is C6. Kind of series: Cell cycle arrest in rat C6 cells assessed as accumulation at G2/M phase at 40 uM after 24 hrs by propidium iodide staining based flow cytometric analysis (reference value: 20.2%). It is filed as functional.
The test system of series [4] is C6. Kind of series: Cell cycle arrest in rat C6 cells assessed as accumulation at G2/M phase at 120 uM after 24 hrs by propidium iodide staining based flow cytometric analysis (reference value: 20.2%). It is filed as functional. In general terms: Flow cytometry measures light scatter and fluorescence of single cells or particles in a stream.
The subject of series [5] is C6. Kind of series: Cell cycle arrest in rat C6 cells assessed as accumulation at G2/M phase at 200 uM after 24 hrs by propidium iodide staining based flow cytometric analysis (reference value: 20.2%). It is filed as functional.
Series [6] deals with C6. Kind of series: Cell cycle arrest in rat C6 cells assessed as accumulation at G2/M phase at 400 uM after 24 hrs by propidium iodide staining based flow cytometric analysis (reference value: 20.2%). Type of series: functional.
For series [7], the system named is C6. Kind of series: Antiproliferative activity against rat C6 cells assessed as inhibition of colony forming ability at 200 uM after 7 days by methylene blue staining; values are per cent of control. Conditions: C6, 168 h.
The test system of series [8] is C6. Kind of series: Antiproliferative activity against rat C6 cells assessed as inhibition of colony forming ability at 400 uM after 7 days by methylene blue staining; values are per cent of control. Conditions: C6, 168 h.
Series [9] has as its system C6. Kind of series: Antiproliferative activity against rat C6 cells assessed as inhibition of colony forming ability at 600 uM after 7 days by methylene blue staining; values are per cent of control. To be noted: C6, 168 h.
A short description of series [10]: Solubility of the compound in water after 5 mins. It is filed as physicochemical.
Series [11] concerns C6. Kind of series: Cell cycle arrest in rat C6 cells assessed as accumulation at sub G0/G1 phase at 100 uM after 24 hrs by propidium iodide staining based flow cytometric analysis (reference value: 0.6 %). It is filed as functional.
For series [12], the system named is C6. Kind of series: Cell cycle arrest in rat C6 cells assessed as accumulation at sub G0/G1 phase at 200 uM after 24 hrs by propidium iodide staining based flow cytometric analysis (reference value: 0.6 %). It is filed as functional.
For series [13], the system named is C6. Kind of series: Cell cycle arrest in rat C6 cells assessed as accumulation at sub G0/G1 phase at 400 uM after 24 hrs by propidium iodide staining based flow cytometric analysis (reference value: 0.6 %). It is filed as functional.
The subject of series [14] is C6. Kind of series: Induction of apoptosis in rat C6 cells assessed as DNA fragmentation at 300 uM after 24 hrs by TUNEL assay relative to control. It is filed as functional, cell-based.
For series [15], the system named is C6. Kind of series: Induction of apoptosis in rat C6 cells assessed as decrease in Bcl2 expression at 100 to 600 uM after 24 hrs by Western blot analysis. It is filed as functional, cell-based.
Series [16] deals with C6. Kind of series: Induction of apoptosis in rat C6 cells assessed as decrease in Bclxl expression at 100 to 600 uM after 24 hrs by Western blot analysis. Type of series: functional, cell-based. A general note: Immunoblotting shows a protein as a band on a membrane.
In series [17] the test system is C6. Kind of series: Induction of apoptosis in rat C6 cells assessed as decrease in pro-caspase 8 expression at 100 to 600 uM after 24 hrs by Western blot analysis. It is filed as functional, cell-based.
Series [18] concerns C6. Kind of series: Induction of apoptosis in rat C6 cells assessed as cleaved caspase 3 at 100 to 600 uM after 24 hrs by Western blot analysis. Type of series: functional, cell-based.
For series [19], the system named is C6. Kind of series: Induction of apoptosis in rat C6 cells assessed as PARP cleavage at 100 to 600 uM after 24 hrs by Western blot analysis. Type of series: functional, cell-based.
Series [20] has as its system C6. Kind of series: Induction of apoptosis in rat C6 cells assessed as upregulation of p53 expression at 100 to 600 uM after 24 hrs by Western blot analysis. Type of series: functional, cell-based.
The test system of series [21] is C6. Kind of series: Antiproliferative activity against rat C6 cells assessed as inhibition of colony forming ability at 40 uM after 7 days by methylene blue staining; values are per cent of control. Conditions: C6, 168 h.
For series [22], the system named is C6. Kind of series: Antiproliferative activity against rat C6 cells assessed as inhibition of colony forming ability at 120 uM after 7 days by methylene blue staining; values are per cent of control. Conditions: C6, 168 h.
Series [23] relates to C6. Kind of series: Antiproliferative activity against rat C6 cells assessed as inhibition of colony forming ability at 800 uM after 7 days by methylene blue staining; values are per cent of control. Conditions: C6, 168 h.

pIC50: −log10 of the molar value. Converted amounts (≈) assume the structure as drawn. The source made the active and inactive calls. The calls are words filed in the database; no cut-off is given here.

What is called solubility is the dissolved amount per volume that the medium holds. Higher therefore signals a readily soluble substance. Take `O=C(N[C@@H](CO)C(=O)O)c1cc2c([nH]c3ccccc32)c(CCC(=O)N2CCC[C@H]2C(=O)O)n1`: the Activity result in the series with C6 [1] is “Dose-dependent effect”. Further, in [2], the solubility result is “soluble”.
Broadly, the pIC50 is the negative decadic logarithm of the IC50, by convention in mol/L. In the case of `CC(C)[C@H](NC(=O)c1cc2c([nH]c3ccccc32)c(CCC(=O)N2CCC[C@H]2C(=O)O)n1)C(=O)O`, the Activity result with C6 [1] was “Dose-dependent effect”; in the series on C6 [3], 24.4%; in the series on C6 [4], 22.8%; in the series with C6 [5], 18.3%; in the series with C6 [6], 23.9%. Further, in the series with C6 [1], the pIC50 was 3.60. In series [2], the solubility result is reported as “soluble”. The colony formation (% of control) at 200 µM in the series on C6 [7] came to 55%. Moreover, in the series with C6 [8], the colony formation (% of control) at 400 µM came out at 35%. Moreover, the colony formation (% of control) at 600 µM in the series on C6 [9] is 15%.
In the case of `O=C(O)c1cc2c([nH]c3ccccc32)c(CCC(=O)N2CCC[C@H]2C(=O)O)n1`, the Activity entry with C6 [1] was “Dose-dependent effect”. In [10], this compound displayed a solubility at 5 min of 10000 µg/mL (≈ 26.2 mM).
Regarding `C[C@H](O)[C@H](NC(=O)c1cc2c([nH]c3ccccc32)c(CCC(=O)N2CCC[C@H]2C(=O)O)n1)C(=O)O`, the Activity entry in the series with C6 [1] was “Dose-dependent effect”; with C6 [11], 4.7%; with C6 [12], 43.7%; with C6 [13] it was 95.1%. Further, in the series on C6 [1], the pIC50 was 3.82. Also, the outcome in the series on C6 [14], in the series with C6 [15], in the series on C6 [16], in the series with C6 [17], in the series with C6 [18] and in the series with C6 [19] was Active. The result in the series with C6 [20] was Active. The solubility result in series [2] is “soluble”. The colony formation (% of control) at 40 µM in the series on C6 [21] amounted to 85%. In the series with C6 [22], the colony formation (% of control) at 120 µM came out at 75%. In addition, the colony formation (% of control) at 200 µM in the series on C6 [7] is 45%. In the series on C6 [8], the colony formation (% of control) at 400 µM was 25%. Also, the colony formation (% of control) at 800 µM in the series with C6 [23] was 5%.
`C[C@H](NC(=O)c1cc2c([nH]c3ccccc32)c(CCC(=O)N2CCC[C@H]2C(=O)O)n1)C(=O)O`: the Activity entry in the series with C6 [1] was “Dose-dependent effect”. Moreover, in series [2], the solubility result is recorded as “soluble”.
